Results as given in patent publication US6548546B2, “HIV integrase inhibitors” (Bristol-Myers Squibb Company, priority 2000, dated 2003).

Molecular target: T1, Purified recombinant HIV-1 integrase (Human immunodeficiency virus type 1 group M subtype B, UniProt P04585)
T1 construct: Purified recombinant HIV-1 integrase
Assay: in vitro HIV-1 integrase integration (strand transfer) assay
Assay type: biochemical
Settings: compound at 70 μM; immobilized precleaved substrate DNA, biotinylated target DNA, 1 hour at 37° C.
Protocol: The in vitro activities, against integrase, of compounds of the present invention, were measured in a manner which was similar to previously disclosed methods (cf. Hazuda, D. J.; Felock, P.; Witmer, M.; Wolfe, A.; Stillmock, K.; Grobler, J. A.; Espeseth, A.; Gabryelski, L.; Schleif, W.; Blau, C.; Miller, M. D. Science, 2000, 287, 646) Purified recombinant HIV-1 integrase was incubated with immobilized precleaved substrate DNA in a 96 well plate for 20 min at 37° C. After the integration complex was formed, compounds at desired concentrations were added to the wells followed by a 10 min incubation at 37° C. Biotinyted Target DNA was then added and the reaction was carried out for an additional 1 hour at 37° C. Wells were then washed thoroughly to remove any free DNA and integration activity was measured by using a commercial kit to quantitate the amount of biotinyted target DNA integrated into the substrate.

| Structure (SMILES) | inhibition at 70 µM [%] |
| --- | --- |
| O=C(/C=C(\O)C(=O)O)CCc1ccccc1Cl [Compound 1, 6-(2-chloro-phenyl)-2-hydroxy-4-oxo-hex-2-enoic Acid] | 70 |
| O=C(/C=C(\O)C(=O)O)CCc1ccccc1Br [Compound 2, 6-(2-Bromo-phenyl)-2-hydroxy-4-oxo-hex-2-enoic Acid] | 90 |
| O=C(/C=C(\O)C(=O)O)CCc1ccccc1 [Compound 3, 2-Hydroxy-4-oxo-phenyl-hex-2-enoic Acid] | 60 |
| O=C(/C=C(\O)C(=O)O)CC(=O)c1ccccc1OCc1ccccc1 [Compound 4, 6-(2-Benzyloxy-phenyl)-2-hydroxy-4,6,-dioxo-hex-2-enoic Acid] | 97 |
| O=C(/C=C(\O)C(=O)O)CC(=O)c1ccccc1C(F)(F)F [Compound 5, 2-Hydroxy-4,6-dioxo-6-(2-trifluoromethyl-phenyl)-hex-2-enoic Acid] | 90 |
| COc1ccccc1C(=O)CC(=O)/C=C(\O)C(=O)O [Compound 6, 2-Hydroxy-6-(2-methoxy-phenyl)-4,6-dioxo-hex-2-enoic Acid] | 90 |
| O=C(/C=C(\O)C(=O)O)CC(=O)c1ccc2ccccc2c1 [Compound 7, 2-Hydroxy-6-naphthalen-2-yl-4,6-dioxo-hex-2-enoic Acid] | 95 |
| O=C(/C=C(\O)C(=O)O)CC(=O)c1ccc(Cl)cc1Cl [Compound 8, 6-(2,4,-Dichloro-phenyl)-2-hydroxy-4,6-dioxo-hex-2-enoic Acid] | 95 |
| O=C(/C=C(\O)C(=O)O)CC(=O)c1ccc(-c2ccccc2)cc1 [Compound 9, 6-Biphenyl-4-yl-2-hydroxy-4,6-dioxo-hex-2-enoic Acid] | 99 |
| O=C(/C=C(\O)C(=O)O)CC(=O)c1cccc(Cl)c1 [Compound 10, 6-(3-Chloro-phenyl)-2-hydroxy-4,6-dioxo-hex-2-enoic Acid] | 88 |
| O=C(/C=C(\O)C(=O)O)CC(=O)c1ccccc1F [Compound 11, 6-(2-Fluoro-phenyl)-2-hydroxy-4,6,-dioxo-hex-2-enoic Acid] | 86 |
| O=C(/C=C(\O)C(=O)O)CC(=O)c1cc(Cl)ccc1Cl [Compound 12, 6-(2,5-Dichloro-phenyl)2-hydroxy-4,6-dioxo-hex-2-enoic Acid] | 98 |
| O=C(/C=C(\O)C(=O)O)CC(=O)c1ccccc1 [Compound 13, 2-Hydroxy-4,6-dioxo-6-phenyl-hex-2-enoic Acid] | 50 |
